# Assay results from patent US9546151B2, “VMAT inhibitory compounds” (Oregon Health & Science University, priority 2014, dated 2017).
# Counter-ions that a name gives are not always drawn. Like-named read-outs stand apart in the source and are kept apart here.
# What was measured:
# VMAT2 [1] = molecular target: T1, VMAT2 (Homo sapiens, UniProt Q05940); test: hVMAT2 [3H]DTBZ ([3H]DHTB) binding assay; set-up: expressed in transfected cells; host or cells: HEK (human embryonic kidney) cells
# Protocol: (§1) Membrane preparation for binding, uptake and release assays using HEK-hVMAT2 cells: Human embryonic kidney cells expressing the human vesicular monoamine transporter 2 (HEK-hVMAT2) were used. HEK-hVMAT2 cells were grown until confluent. The media was removed from plates, solution A [sucrose (0.32 M) with protease inhibitors] was added to the plate, and cells were scraped from plate. Cells were homogenized with 12 strokes of a glass/glass homogenizer. The homogenate was centrifuged at 800×g for 10 min. The supernatant was removed and saved, and the pellet was resuspended, homogenized and centrifuged as above. The supernatants were combined and centrifuged at 10,000×g for 20 min. The pellet was resuspended in solution A (0.75 ml). The membranes were osmotically shocked by addition of 2.625 ml ice cold water and homogenized by 5 strokes of a glass/Teflon homogenizer. The osmolarity was reestablished with addition of Tris (338 μl, 0.25M, pH 7.4 at 4° C.), sodium potassium tartrate (338 μl, 1.0 M), and MgSO4 (4 μl, 0.9M). The homogenate was centrifuged at 20,000×g for 20 min.
# Binding was terminated by filtration over Whatman GF/C filters using a Tomtec 96-well cell harvester. Filters were washed for six seconds with ice-cold saline. Scintillation fluid was added to each square and radioactivity remaining on the filters was determined using a Wallac μ- or beta-plate reader. Specific binding was defined as the difference in binding observed in the presence and absence of Ro4-1284 (10 μM, generously supplied by Hoffman LaRoche). Three or more independent competition experiments were conducted with duplicate determinations.
# VMAT2 [2] = molecular target: T1, VMAT2; test: hVMAT2 5HT Uptake; format: biochemical; set-up: expressed in transfected cells; host or cells: HEK (human embryonic kidney) cells
# Protocol: as §1
# [3] = cells printed in μM under a head in nM, HEK-hVMAT2 membranes
# [4] = [^3H]5HT uptake, HEK-hVMAT2 preparation, read-out: hVMAT2 5HT Uptake IC50 (nM) ± SEM
# [5] = cells printed in μM under a head in nM, read-out: hVMAT2 5HT Uptake IC50 (nM) ± SEM
# [6] = HEK-hVMAT2 membranes, series 5 ligands tested as hydrochloride salts
# T1 sequence (Q05940 whole entry): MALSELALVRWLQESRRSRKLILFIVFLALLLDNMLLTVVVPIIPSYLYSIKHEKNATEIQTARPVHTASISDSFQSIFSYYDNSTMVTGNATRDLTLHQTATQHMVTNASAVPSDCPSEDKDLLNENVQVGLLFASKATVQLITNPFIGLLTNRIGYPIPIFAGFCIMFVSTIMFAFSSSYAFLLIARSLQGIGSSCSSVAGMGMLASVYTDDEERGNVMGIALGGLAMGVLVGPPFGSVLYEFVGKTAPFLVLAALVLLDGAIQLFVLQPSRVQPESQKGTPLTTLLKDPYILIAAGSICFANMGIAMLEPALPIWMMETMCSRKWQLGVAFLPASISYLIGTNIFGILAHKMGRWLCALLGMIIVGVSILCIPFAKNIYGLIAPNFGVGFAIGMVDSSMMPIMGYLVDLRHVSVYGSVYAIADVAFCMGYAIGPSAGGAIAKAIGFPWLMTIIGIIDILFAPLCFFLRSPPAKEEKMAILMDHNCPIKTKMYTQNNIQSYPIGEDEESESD
Structure (SMILES),Ki (VMAT2 [1]; [3]) [µM],IC50 (VMAT2 [2]; [4]) [nM],melting point [°C],further results
"CCOC(=O)[C@H]1CN(CCn2c(=O)[nH]c3ccccc3c2=O)CC[C@H]1c1cccc(OC)c1 (racemic) [Compound 5q, (±)-syn-Ethyl 1-(2-(2,4-dioxo-1,2-dihydroquinazolin-3(4H),-yl)ethyl)-4-(3-methoxyphenyl) piperidine-3-carboxylate]",> 10,180 ± 54,–,–
"CCOC(=O)[C@@H]1CN(CCn2c(=O)c3ccccc3n(C)c2=O)CC[C@@H]1c1ccc(F)cc1 (racemic) [Compound 6a, (±) syn-ethyl 4-(4-fluorophenyl)-1-(2-(1-methyl-2,4-dioxo-1,2-dihydroquinazolin-3(4H)-yl)ethyl)piperidine-3-carboxylate]",–,–,131.1 to 133,–
"CCOC(=O)[C@@H]1CN(CCn2c(=O)[nH]c3ccccc3c2=O)CC[C@@H]1c1ccc(C(N)=O)cc1 (racemic) [Compound 5i, (±) syn-ethyl 4-(4-carbamoylphenyl)-1-(2-(2,4-dioxo-1,2-dihydroquinazolin-3(4H)-yl)ethyl)piperidine-3-carboxylate]",> 3,–,–,IC50 (VMAT2 [2]; [5]): > 10000 nM
"CCOC(=O)[C@H]1CN(CCn2c(=O)[nH]c3ccccc3c2=O)CC[C@H]1c1ccc(CC)cc1 (racemic) [Compound 5t, (±)-syn-Ethyl 1-(2-(2,4-dioxo-1,2-dihydroquinazolin-3(4H),-yl)ethyl)-4-(4-ethylphenyl) piperidine-3-carboxylate]",–,906 ± 14,–,Ki (VMAT2 [1]; [6]): > 8.4 µM
"CCCn1c(=O)n(CCN2CC[C@H](c3ccc(F)cc3)[C@H](C(=O)OCC)C2)c(=O)c2ccccc21 (racemic) [Compound 6b, (±) syn-ethyl 1-(2-(2,4-dioxo-1-propyl-1,2-dihydroquinazolin-3(4H)-yl)ethyl)-4-(4-fluorophenyl)piperidine-3-carboxylate]",–,–,96.8 to 97.7,–
CCOC(=O)C1=C(c2ccc(F)cc2)CCN(CCn2c(=O)[nH]c3ccccc3c2=O)C1,–,–,150 to 152,–
"CCOC(=O)[C@H]1CN(CCn2c(=O)[nH]c3ccccc3c2=O)CC[C@H]1c1ccc2c(c1)OCCO2 (racemic) (as salt: HCl) [Compound 5gg, (±)-syn-Ethyl 4-(2,3-dihydrobenzo[b][1,4]dioxin-6-yl)-1-(2-(2,4-dioxo-1,2-dihydroquinazolin-3(4H)-yl)ethyl)piperidine-3-carboxylate]",–,–,178 to 179,–
"O=c1[nH]c2ccccc2c(=O)n1CCN1CCC(c2ccc(F)cc2)CC1 [Compound 16, 3-(2-(4-(4-fluorophenyl)piperidin-1-yl)ethyl)quinazoline-2,4(1H,3H)-dione]",–,–,263 to 264,–
CCOC(=O)[C@H]1CN(CCn2c(=O)[nH]c3ccccc3c2=O)CC[C@H]1c1ccc(C)s1 [A1=CH3],–,–,–,Ki (VMAT2 [1]): > 8 µM; IC50 (VMAT2 [2]): 312 ± 18 nM
"CCOC(=O)[C@H]1CN(CCn2c(=O)[nH]c3ccccc3c2=O)CC[C@H]1c1ccc(OC)c(OC)c1 (racemic) [Compound 5dd, (±)-syn-Ethyl 4-(3,4-dimethoxyphenyl)-1-(2-(2,4-dioxo-1,2-dihydroquinazolin-3(4H),-yl)ethyl) piperidine-3-carboxylate]",> 10,–,–,IC50 (VMAT2 [2]; [5]): > 3000 nM
"CCOC(=O)[C@H]1CN(CCn2c(=O)[nH]c3ccccc3c2=O)CC[C@H]1CCc1ccccc1 (racemic) (as salt: HCl) [Compound 5v, (±)-syn-Ethyl 1-(2-(2,4-dioxo-1,2-dihydroquinazolin-3(4H)-yl)ethyl)-4-phenethylpiperidine-3-carboxylate]",–,–,140 to 141,–
"CCOC(=O)[C@H]1CN(CCn2c(=O)[nH]c3ccccc3c2=O)CC[C@H]1c1cccc(C)c1 (racemic) [Compound 5y, (±)-syn-Ethyl 1-(2-(2,4-dioxo-1,2-dihydroquinazolin-3(4H),-yl)ethyl)-4-(m-tolyl)piperidine-3-carboxylate]",–,53 ± 10,–,Ki (VMAT2 [1]; [6]): > 6.2 µM
"CCOC(=O)[C@H]1CN(CCn2c(=O)[nH]c3ccccc3c2=O)CC[C@H]1c1ccc(OC(F)(F)F)cc1 (racemic) (as salt: HCl) [Compound 5ii, (±)-syn-ethyl 1-(2-(2,4-dioxo-1,2-dihydroquinazolin-3(4H)-yl)ethyl)-4-(4-(trifluoromethoxy)phenyl)piperidine-3-carboxylate]",–,–,150 to 151.5,–
"CCOC(=O)[C@H]1CN(CCn2c(=O)[nH]c3ccccc3c2=O)CC[C@H]1c1ccccc1N(C)C (racemic) (as salt: HCl) [Compound 5bb, (±)-syn-Ethyl 4-(2-(dimethylamino)phenyl)-1-(2-(2,4-dioxo-1,2-dihydroquinazolin-3(4H),-yl)ethyl) piperidine-3-carboxylate]",–,–,208 to 209,–
"CCOC(=O)[C@H]1CN(CCN2C(=O)c3ccccc3C2=O)CC[C@H]1c1ccc(F)cc1 (racemic) (as salt: HCl) [Example 144, (±)-syn-Ethyl 1-(2-(1,3-dioxoisoindolin-2-yl)ethyl)-4-(4-fluorophenyl)piperidine-3-carboxylate]",–,–,104.5 to 105.5,–
"CCOC(=O)[C@H]1CN(CCn2c(=O)[nH]c3ccccc3c2=O)CC[C@H]1c1ccccc1N(C)C (racemic) [Compound 5bb, (±)-syn-Ethyl 4-(2-(dimethylamino)phenyl)-1-(2-(2,4-dioxo-1,2-dihydroquinazolin-3(4H),-yl)ethyl) piperidine-3-carboxylate]",> 6,–,–,IC50 (VMAT2 [2]; [5]): > 2000 nM
"CCOC(=O)[C@H]1CN(CCn2c(=O)[nH]c3ccccc3c2=O)CC[C@H]1c1ccc(N)cc1 (racemic) [Compound 5mm, (±)-syn-Ethyl 4-(4-aminophenyl)-1-(2-(2,4-dioxo-1,2-dihydroquinazolin-3(4H),-yl)ethyl) piperidine-3-carboxylate]",> 10,2150 ± 237,–,–
"CCOC(=O)[C@H]1CN(CCn2c(=O)[nH]c3ccccc3c2=O)CC[C@H]1c1ccc(OC)cc1 (racemic) (as salt: HCl) [Compound 5r, (±)-syn-Ethyl 1-(2-(2,4-dioxo-1,2-dihydroquinazolin-3(4H),-yl)ethyl)-4-(4-methoxyphenyl) piperidine-3-carboxylate]",–,–,153 to 154,–
"CCOC(=O)[C@H]1CN(CCn2c(=O)[nH]c3ccccc3c2=O)CC[C@H]1c1ccc(OC(F)(F)F)cc1 (racemic) [Compound 5ii, (±)-syn-ethyl 1-(2-(2,4-dioxo-1,2-dihydroquinazolin-3(4H)-yl)ethyl)-4-(4-(trifluoromethoxy)phenyl)piperidine-3-carboxylate]",> 5,–,–,–
"CCOC(=O)[C@H]1CN(CCn2c(=O)[nH]c3ccccc3c2=O)CC[C@H]1c1ccccc1C (racemic) [Compound 5z, (±)-syn-Ethyl 1-(2-(2,4-dioxo-1,2-dihydroquinazolin-3(4H),-yl)ethyl)-4-(o-tolyl)piperidine-3-carboxylate]",> 5,31 ± 3,–,–
"CCOC(=O)[C@H]1CN(CCn2c(=O)[nH]c3ccccc3c2=O)CC[C@H]1c1ccc(C(C)C)cc1 (racemic) [Compound 5u, (±)-syn-Ethyl 1-(2-(2,4-dioxo-1,2-dihydroquinazolin-3(4H),-yl)ethyl)-4-(4-isopropylphenyl) piperidine-3-carboxylate]",–,684 ± 249,–,Ki (VMAT2 [1]; [6]): 1.62 ± 0.107 µM
"CCOC(=O)C1=C(c2ccccc2C(F)(F)F)CCN(CCn2c(=O)[nH]c3ccccc3c2=O)C1 [Compound 5hh, Ethyl 1-(2-(2,4-dioxo-1,2-dihydroquinazolin-3(4H)-yl)ethyl)-4-(2-(trifluoromethyl)phenyl)-1,2,5,6-tetrahydropyridine-3-carboxylate]",–,328 ± 38,–,–
"O=C(c1ccc(F)cc1)C1CCN(CCn2c(=O)[nH]c3ccccc3c2=O)CC1 [R1=H, R2=H]",–,142 ± 23,–,Ki (VMAT2 [1]; [6]): 0.119 ± 0.003 µM
"CCOC(=O)[C@H]1CN(CCn2c(=O)[nH]c3ccccc3c2=O)CC[C@H]1c1ccc(O)c(O)c1 (racemic) [Compound 5ff, (±)-syn-Ethyl 4-(3,4-dihydroxyphenyl)-1-(2-(2,4-dioxo-1,2-dihydroquinazolin-3(4H)-yl)ethyl)piperidine-3-carboxylate]",–,333 ± 85,–,–
"CCOC(=O)[C@H]1CN(CCn2c(=O)[nH]c3ccccc3c2=O)CC[C@H]1c1ccc(OC)cc1 (racemic) [Compound 5r, (±)-syn-Ethyl 1-(2-(2,4-dioxo-1,2-dihydroquinazolin-3(4H),-yl)ethyl)-4-(4-methoxyphenyl) piperidine-3-carboxylate]",> 10,36 ± 11,–,–
"CCOC(=O)[C@H]1CN(CCn2c(=O)[nH]c3ccccc3c2=O)CC[C@H]1c1cccc(N=[N+]=[N-])c1 (racemic) [Compound 5cc, (±)-syn-Ethyl 4-(3-azidophenyl)-1-(2-(2,4-dioxo-1,2-dihydroquinazolin-3(4H)-yl)ethyl)piperidine-3-carboxylate]",> 7,74 ± 11,–,–
